The values that follow come from PubChem BioAssay (NCI).

Structures are written as SMILES.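 Exposure lasted 48 hours, with cells grown in 96-well plates and compounds tested at five concentrations. TGI is the concentration that stops growth completely.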

Experiment in all cases: growth of human tumour cells (NCI), 48 h
Test [1] concerns MCF7 breast.
Test [2] deals with NCI-H23 lung.
The subject of test [3] is M14 melanoma.
For test [4], the system named is IGROV1 ovarian.
The test system of test [5] is NCI/ADR-RES ovarian.
Test [6] relates to ACHN renal.

As for `COCn1c2ccc(OC(C)=O)cc2c2c(=O)oc(N(C)C)nc21`, the TGI in test [1], in test [2], in test [3], in test [4], in test [5] and in test [6] was more than 100 µM in each case.

Take `CN(/N=C(\C(=O)O)c1ccccc1)C1=NCCCN1`: the TGI in test [1], in test [2], in test [4], in test [5] and in test [6] was more than 100 µM in each case.

Regarding `N#CC(C#N)=Cc1ccc2c(c1)OC(Cl)O2` (stereo not given), the TGI is more than 100 µM in test [1]; more than 100 µM in test [2]; 55.7 µM in test [3]; more than 100 µM in test [5]; 36 µM in test [6].

Regarding `CN(C)CCNC(=O)c1cccc2c(NCC(=O)O)c3ccccc3nc12`, the TGI in test [1] was 27.8 µM; in test [2], 45.1 µM; in test [3], 52.2 µM; in test [4], more than 100 µM; in test [5], 48.2 µM; in test [6] it was more than 100 µM.

Take `COc1cc2cc(C(=O)N3CC(CCl)c4ccc(O)cc43)[nH]c2c(OC)c1OC` (stereo not given): the TGI in test [2] was determined as 0.812 µM; in test [3] it was 0.12 µM; in test [6], 0.000211 µM.

Consider `CN(C(=O)Cc1cc(Cl)c(Cl)cc1N=C=S)[C@H]1CCCC[C@@H]1N1CCCC1`, for which the TGI in test [1] came out at 30.1 µM; in test [2] it was 30.5 µM; in test [3], 29.6 µM; in test [4] it was 28.1 µM; in test [5], 36.9 µM; in test [6], 28.7 µM.

Take `CC12Nc3ccccc3N1C(=O)c1ccccc12` (stereo not given): the TGI in test [1], in test [2], in test [3], in test [4], in test [5] and in test [6] was more than 100 µM in each case.

`CSc1nc(N)c(NC2OC(CO)C(O)C2O)c(=O)[nH]1` (stereo not given): the TGI in test [1], in test [3], in test [4] and in test [5] was more than 100 µM each time.

In the case of `COC(=O)c1ccc2c(O)c(O)ccc2c1`, the TGI in test [1] was determined as 36.6 µM; in test [2], 22.7 µM; in test [3], 31 µM; in test [4], 31.6 µM; in test [5], 48.1 µM; in test [6], 30.9 µM.

Consider `NNC(=O)c1ccc(-n2nnc(C(=O)NN)c2C(=O)NN)cc1`, for which the TGI in test [1], in test [2], in test [3], in test [5] and in test [6] was more than 100 µM in each case.

`Cc1ccc(-c2nc3ccc(Cl)cc3[nH]2)cc1`: the TGI in test [1], in test [2], in test [3], in test [4], in test [5] and in test [6] was more than 100 µM each time.

Turning to `CNC(=O)N1CN(c2ccccc2)C2(CCN(CCCC(=O)c3ccc(F)cc3)CC2)C1=O`, the TGI in test [1] was determined as 16 µM; in test [2], 87.5 µM; in test [3], 40.8 µM; in test [4], 89.1 µM; in test [5], 36.6 µM; in test [6], 75.5 µM.

Turning to `COC(=O)[C@@H]1CN(C(=O)CCc2ccccc2)C(=O)N1C(=O)OCc1ccccc1`, the TGI in test [1], in test [2], in test [3], in test [4], in test [5] and in test [6] was more than 100 µM in each case.

Turning to `CCC1C(c2cc(OC)c(OC)c(OC)c2)c2cc3c(cc2OC1N1CCCC1)OCO3` (stereo not given), the TGI amounted to 13.7 µM in test [1]; 39 µM in test [2]; 26.6 µM in test [3]; 17.8 µM in test [4]; 7.03 µM in test [5]; 26.6 µM in test [6].

Turning to `Cc1c(/C=N/NC(=S)Nc2ccccc2Cl)c(=O)n(-c2ccccc2)n1C`, the TGI in test [1] is more than 100 µM; in test [3], more than 100 µM; in test [4] it was more than 100 µM; in test [5] it was 76.1 µM.

In the case of `COc1c2c(cc3oc(C)cc(=O)c13)OC(=N)C(C(N)=O)C2CC(=O)c1ccc(N)cc1` (stereo not given), the TGI in test [1], in test [3], in test [4], in test [5] and in test [6] was more than 100 µM each time.

For the molecule `O=C(NCc1cccnc1)NCc1cccnc1`, the TGI in test [1], in test [2], in test [3], in test [4], in test [5] and in test [6] was more than 100 µM in each case.

With `COc1cc(/C=C2/CCS(=O)(=O)c3ccc(C)cc3C2=O)cc(OC)c1OC`, the TGI was 14.9 µM in test [1]; more than 36.2 µM in test [2]; 18.9 µM in test [3]; more than 39.4 µM in test [4]; more than 28.6 µM in test [5]; 14.2 µM in test [6].

Turning to `Fc1ccc2nc3n(c2c1)C(c1c(F)cccc1F)SC3` (stereo not given), the TGI in test [1], in test [2], in test [3], in test [4], in test [5] and in test [6] was more than 100 µM in each case.

Turning to `O=C(CN1CCNCCN(CC(=O)N2CCCCC2)CCNCC1)N1CCCCC1`, the TGI in test [1], in test [3], in test [4], in test [5] and in test [6] was more than 100 µM throughout.

For the molecule `N#C/C(=C\c1ccccc1)C(=O)Nc1nnc(-c2ccccc2)o1`, the TGI in test [1], in test [2], in test [3], in test [4], in test [5] and in test [6] was more than 100 µM each time.

On to `CCCCCC/C=C\CCCCCCCCCc1cccc(O)c1C(=O)O`, for which the TGI in test [1], in test [2], in test [3], in test [4], in test [5] and in test [6] was more than 100 µM throughout.
